Where two headings read alike, the source gives them in different places.
Target: T1, human TrkA (Homo sapiens, UniProt P04629)
T1 construct: purchased Lifetechnologies PV3144
Assay: Test Example 2-2: Human TrkA Inhibition Assay
Type: biochemical
Experimental: Seven point five μL per well of human TrkA (PV3144, Lifetechnologies, final concentration: 1 nmol/L) suspended in the assay buffer (100 mmol/L 4-(2-hydroxyethyl)-1-piperazineethanesulfonic acid (HEPES), 10 mmol/L magnesium chloride, 0.003 vol % Brij-35, 0.004 vol % Tween20 and 1 mmol/L dithiothreitol (DTT)) was applied in a 384 well plate and the plate was pre-incubated for 15 min at room temperature with 0.4 μL of each compound (final concentration: […]) dissolved in DMSO. Then, fluorescent substrate (FL-peptide 27, 760424, PerkinElmer, final concentration: 1.5 μmol/L) and ATP (final concentration […]) dissolved in the assay buffer was added in each well. After the incubation of 120 min at 37° C., fifteen μL of termination buffer (100 mmol/L HEPES, 40 mmol/L ethylenediaminetetraacetic acid (EDTA), 10 mmol/L magnesium chloride, 0.003 vol % Brij-35, 0.004 vol % Tween20, 1 mmol/L DTT and 0.16 vol % Coating Reagent 3) was added in each well to stop the enzyme reaction. Fluorescent intensities (FI) of phosphorylated and non-phosphorylated fluorescent substrates were measured by LabChip EZReader II (Caliper LifeSciences, Inc.), and conversion ratio (CR) was calculated by the following formula-1. The CR in the well applied with DMSO alone was used as a negative control and the CR in the well without applying TrkA was used as a positive control. The inhibitory effect of each compound on TrkA phosphorylation was calculated by the following formula-2. CR (%)=(FI of phosphorylated substrate/(FI of phosphorylated substrate+FI of non-phosphorylated substrate))×100 (Formula-1) Phosphorylation inhibition (%)=(1−(CR with compound treatment−CR of positive control)/(CR of negative control−CR of positive control))×100 (Formula-2) Inhibitory effect on TrkA phosphorylation (%)=(1−(CR in compound treated well−CR in positive control)/(CR in negative control−CR in positive control))×100.
The 50/o inhibitory concentration (IC50) was determined by the logistic regression using the inhibition data in 10 points at a range of 2 μmol/L to 0.1 nmol/L or 200 μmol/L to 10 nmol/L).

[1] = human TrkA inhibition, class symbols A/B/C, read-out: IC50_nM
[2] = human TrkA 1 nmol/L, 120 min at 37° C., read-out: TrkA inhibition IC50
[3] = class symbols, read-out: IC50_nM

T1 sequence (P04629 33-796): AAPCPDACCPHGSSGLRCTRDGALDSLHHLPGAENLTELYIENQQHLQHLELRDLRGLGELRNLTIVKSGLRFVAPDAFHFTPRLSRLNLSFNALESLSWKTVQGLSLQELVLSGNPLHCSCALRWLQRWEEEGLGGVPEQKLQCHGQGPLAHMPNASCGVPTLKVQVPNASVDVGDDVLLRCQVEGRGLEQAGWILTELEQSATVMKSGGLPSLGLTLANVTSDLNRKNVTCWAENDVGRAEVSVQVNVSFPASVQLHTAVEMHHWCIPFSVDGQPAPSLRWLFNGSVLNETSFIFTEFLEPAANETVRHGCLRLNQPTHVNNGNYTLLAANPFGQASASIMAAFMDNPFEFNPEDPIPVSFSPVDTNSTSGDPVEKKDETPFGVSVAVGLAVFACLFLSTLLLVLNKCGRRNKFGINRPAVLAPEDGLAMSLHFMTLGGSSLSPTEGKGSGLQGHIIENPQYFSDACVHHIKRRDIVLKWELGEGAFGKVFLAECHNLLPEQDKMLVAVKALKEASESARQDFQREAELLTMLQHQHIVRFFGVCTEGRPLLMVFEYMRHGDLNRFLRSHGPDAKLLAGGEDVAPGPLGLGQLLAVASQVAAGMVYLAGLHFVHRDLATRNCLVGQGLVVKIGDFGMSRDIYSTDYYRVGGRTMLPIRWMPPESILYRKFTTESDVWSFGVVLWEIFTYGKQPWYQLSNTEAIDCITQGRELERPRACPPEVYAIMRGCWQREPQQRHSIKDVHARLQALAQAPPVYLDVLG

Structure (SMILES) | IC50 [1] [nM] | further results
Cc1c(-c2cnn(C)c2)nn(-c2ccccc2)c1NC(=O)N[C@@H]1CN(CCOC2CC2)C[C@H]1c1ccc(F)c(F)c1 [Compound I-252] | – | IC50 [2]: 3.6 nM
COCCC1C[C@@H](NC(=O)Nc2c3c(nn2-c2ccccc2)CCC3)[C@H](c2ccccc2)C1 (some centres unmarked) [Compound I-184] | – | IC50 [2]: 47 nM
COCC[C@@H]1C[C@@H](NC(=O)Nc2c(C)c(-c3cnn(C)c3)nn2-c2ccccc2)[C@](O)(c2ccccc2)C1 [Compound I-273] | – | IC50 [3]: > 1000 nM
CC(=O)CN1C[C@@H](NC(=O)Nc2c(C)c(-c3cnn(C)c3)nn2-c2ccccc2)[C@H](c2ccc(F)c(F)c2)C1 [Compound I-185] | – | IC50 [2]: 1500 nM
Cc1c(-c2cnn(C)c2)nn(-c2ccccc2)c1NC(=O)N[C@@H]1CN(Cc2csc(Cl)n2)C[C@H]1c1ccc(F)c(F)c1 [Compound I-204] | < 100 | –
CCc1ccc(CN2C[C@@H](NC(=O)Nc3c(C)c(-c4cnn(C)c4)nn3-c3ccccc3)[C@H](c3ccc(F)c(F)c3)C2)o1 [Compound I-192] | 100 to 1000 | –
COCC[C@@H]1C[C@@H](NC(=O)Nc2c(C)c(-c3cnc(C)nc3)nn2-c2ccccc2)[C@H](c2ccc(F)c(F)c2)N1 [Compound I-256] | – | IC50 [2]: 8.2 nM
Cc1c(-c2cnn(C)c2)nn(-c2ccccc2)c1NC(=O)N[C@@H]1CN(Cc2ccc(C(=O)O)o2)C[C@H]1c1ccc(F)c(F)c1 [Compound I-188] | > 1000 | –
COCC[C@@H]1C[C@@H](NC(=O)Nc2c(C)c(-c3cnc(CO)nc3)nn2-c2ccccc2)[C@H](c2ccccc2)C1 [Compound I-269] | – | IC50 [2]: 1.3 nM
Cc1c(-c2cnn(C)c2)nn(-c2ccccc2)c1NC(=O)N[C@@H]1CN(Cc2cc(Br)co2)C[C@H]1c1ccc(F)c(F)c1 [Compound I-189] | < 100 | –
Cc1c(-c2cnn(C)c2)nn(-c2ccccc2)c1NC(=O)N[C@@H]1CN(Cc2ccc(Cl)o2)C[C@H]1c1ccc(F)c(F)c1 [Compound I-202] | – | IC50 [2]: 0.71 nM
COCCC1C[C@@H](NC(=O)Nc2c(C)c(OCC(C)(C)O)nn2-c2ccccc2)[C@H](c2ccccc2)C1 (relative stereo) [Compound I-182] | 100 to 1000 | –
COCC[C@@H]1C[C@@H](NC(=O)Nc2c(C)c(-c3cnn(C)c3)nn2-c2ccccc2)[C@H](c2ccc(F)cc2)N1C [Compound I-275] | – | IC50 [3]: < 100 nM
Cc1c(-c2cnn(C)c2)nn(-c2ccccc2)c1NC(=O)N[C@@H]1CN(CCOC(C)C)C[C@H]1c1ccc(F)c(F)c1 [Compound I-217] | < 100 | –
CCO[C@@H]1C[C@@H](NC(=O)Nc2c(C)c(-c3cnn(C)c3)nn2-c2ccccc2)[C@H](c2ccccc2)C1 (racemic) [Compound I-211] | > 1000 | –
COCC[C@@H]1C[C@@H](NC(=O)Nc2c(C)c(C3=CCN(C(C)=O)CC3)nn2-c2ccccc2)[C@H](c2ccccc2)C1 [Compound I-270] | – | IC50 [2]: 0.67 nM

Structure (SMILES) | IC50 [1] [nM] | further results
COCC(O)C1C[C@@H](NC(=O)Nc2c(C)c(-c3cnn(C)c3)nn2-c2ccccc2)[C@H](c2ccccc2)C1 (some centres unmarked) [Compound I-271] | – | IC50 [3]: 100 to 1000 nM
Cc1c(-c2cnn(C)c2)nn(-c2ccccc2)c1NC(=O)N[C@@H]1CC(C)C[C@H]1c1ccc(F)c(F)c1 (some centres unmarked) [Compound I-163] | 100 to 1000 | –
COCC[C@@H]1C[C@@H](NC(=O)Nc2c(C)c(OCC3CCN(C)CC3)nn2-c2ccccc2)[C@H](c2ccccc2)C1 [Compound I-272] | – | IC50 [3]: < 100 nM
CO[C@@H]1C[C@@H](NC(=O)Nc2c(C)c(-c3cnn(C)c3)nn2-c2ccccc2)[C@H](c2ccccc2)C1 (racemic) [Compound I-210] | 100 to 1000 | –
COCCN1C[C@@H](NC(=O)Nc2c(C)c(-c3cnn(C)c3)nn2-c2ccccc2)[C@H](C2=CCCCC2)C1 (racemic) [Compound I-218] | – | IC50 [2]: 270 nM
COCCC1C[C@@H](NC(=O)Nc2cc(C(F)(F)F)cnc2-c2ccccc2)[C@H](c2ccccc2)C1 (relative stereo) [Compound I-201] | < 100 | –
Cc1c(-c2cnn(C)c2)nn(-c2ccccc2)c1NC(=O)N[C@@H]1CN(Cc2ccc(CO)o2)C[C@H]1c1ccc(F)c(F)c1 [Compound I-191] | 100 to 1000 | –
COCC(O)[C@H]1C[C@@H](NC(=O)Nc2c(C)c(-c3cnn(C)c3)nn2-c2ccccc2)[C@H](c2ccc(F)c(F)c2)N1 (some centres unmarked) [Compound I-215] | 100 to 1000 | –
COCC[C@@H]1C[C@@H](NC(=O)Nc2c(C)c(-c3cnc(C)nc3)nn2-c2ccccc2)[C@H](c2ccc(F)c(F)c2)C1 [Compound I-254] | – | IC50 [2]: 0.73 nM
Cc1cc(CN2C[C@@H](NC(=O)Nc3c(C)c(-c4cnn(C)c4)nn3-c3ccccc3)[C@H](c3ccc(F)c(F)c3)C2)oc1C [Compound I-203] | 100 to 1000 | –
COCCC1C[C@@H](NC(=O)Nc2cc(-c3ccc(C(=O)O)cc3)nn2C)[C@H](c2ccccc2)C1 (some centres unmarked) [Compound I-199] | > 1000 | –
COCCC1C[C@@H](NC(=O)Nc2c(C)c(-c3ccc(C(=O)O)cc3)nn2-c2ccccc2)[C@H](c2ccccc2)C1 (some centres unmarked) [Compound I-207] | < 100 | –
COCCN1C[C@@H](NC(=O)Nc2c(C)c(-c3cnn(C)c3)nn2-c2ccccc2)[C@H](c2ccnc(C3=NC(=O)CS3)c2)C1 (racemic) [Compound I-195] | > 1000 | –
COCCC1C[C@@H](NC(=O)Nc2c(C)c(-c3cnn(C)c3)nn2-c2ccccc2)[C@H](c2ccc(F)c(F)c2)N1CC#N (some centres unmarked) [Compound I-179] | 100 to 1000 | –
COCCC1C[C@@H](NC(=O)Nc2cc(-c3ccccc3)nn2C)[C@H](c2ccccc2)N1 (some centres unmarked) [Compound I-216] | 100 to 1000 | –

Second part, led by results:

IC50 [1] [nM] | Structure (SMILES) | further results
< 100 | COCC[C@@H]1C[C@@H](NC(=O)Nc2c(C)c(C3=CCNCC3)nn2-c2ccccc2)[C@H](c2ccccc2)C1 [Compound I-266] | –
> 1000 | COCC(OC)[C@H]1C[C@@H](NC(=O)Nc2c(C)c(-c3cnn(C)c3)nn2-c2ccccc2)[C@H](c2ccc(F)c(F)c2)N1C (some centres unmarked) [Compound I-231] | –
< 100 | COCC[C@@H]1C[C@@H](NC(=O)Nc2c(C)c(C3=CCNCC3)nn2-c2ccccc2)[C@H](c2ccc(F)c(F)c2)N1C [Compound I-258] | –
< 100 | COCC[C@@H]1C[C@@H](NC(=O)Nc2c(C)c(C3=CCNCC3)nn2-c2ccccc2)[C@H](c2ccc(F)c(F)c2)N1 [Compound I-247] | –
< 100 | COCC(O)[C@H]1C[C@@H](NC(=O)Nc2c(C)c(-c3cnn(C)c3)nn2-c2ccccc2)[C@H](c2ccc(F)c(F)c2)N1C (some centres unmarked) [Compound I-229] | –
100 to 1000 | CCOc1nn(-c2ccccc2)c(NC(=O)N[C@@H]2C[C@@H](CCOC)[C@H](CO)[C@H]2c2ccccc2)c1C [Compound I-227] | –
> 1000 | CO[C@@H]1C[C@H](NC(=O)Nc2c(C)c(-c3cnn(C)c3)nn2-c2ccccc2)[C@@H](c2ccccc2)C1 (racemic) [Compound I-233] | –
< 100 | COCC[C@@H]1C[C@@H](NC(=O)Nc2c(C)c(C3=CCN(C(=O)OC(C)(C)C)CC3)nn2-c2ccccc2)[C@H](c2ccccc2)C1 [Compound I-265] | –
100 to 1000 | COCC(C(=O)OC)[C@@H]1C[C@@H](NC(=O)Nc2c(C)c(-c3cnn(C)c3)nn2-c2ccccc2)[C@H](c2ccccc2)C1 (mixture of isomers) [Compound I-244] | –
< 100 | COCC[C@@H]1C[C@@H](NC(=O)Nc2c(C)c(-c3ccnc(C)c3)nn2-c2ccccc2)[C@H](c2ccc(F)c(F)c2)N1C [Compound I-235] | –
> 1000 | COCC(C(=O)OC)[C@@H]1C[C@@H](NC(=O)Nc2c(C)c(-c3cnn(C)c3)nn2-c2ccccc2)[C@H](c2ccccc2)C1 (mixture of isomers) [Compound I-243] | –
100 to 1000 | C=C[C@@H]1C[C@@H](NC(=O)Nc2c(C)c(-c3cnn(C)c3)nn2-c2ccccc2)[C@H](c2ccc(F)c(F)c2)N1 [Compound I-224] | –
> 1000 | CCOC(=O)C(COC)[C@@H]1C[C@@H](NC(=O)Nc2c(C)c(-c3cnn(C)c3)nn2-c2ccccc2)[C@H](c2ccccc2)C1 (mixture of isomers) [Compound I-238] | –
100 to 1000 | Cc1c(-c2cnn(C)c2)nn(-c2ccccc2)c1NC(=O)N[C@@H]1CN(Cc2ccccn2)C[C@H]1c1ccc(F)c(F)c1 [Compound I-240] | –
100 to 1000 | COCCN1C[C@@H](NC(=O)Nc2c(C)c(-c3cnn(C)c3)nn2-c2ccccc2)[C@H](c2cccc(C=O)c2)C1 (racemic) [Compound I-230] | –
< 100 | COCC[C@@H]1C[C@@H](NC(=O)Nc2c(C)c(-c3cnn(C)c3)nn2-c2ccccc2)[C@H](c2ccccc2)[C@H]1C(F)F [Compound I-253] | –
< 100 | COCC=C1C[C@@H](NC(=O)Nc2c(C)c(-c3cnn(C)c3)nn2-c2ccccc2)[C@H](c2ccccc2)C1 [Compound I-261] | –
< 100 | COCC[C@H]1C[C@@H](NC(=O)Nc2c(C)c(-c3cnn(C)c3)nn2-c2ccccc2)[C@H](c2ccccc2)N1C [Compound I-246] | –
< 100 | CCOCCN1C[C@@H](NC(=O)Nc2c(C)c(-c3cnn(C)c3)nn2-c2ccccc2)[C@H](c2ccc(F)c(F)c2)C1 [Compound I-249] | –

— patent publication US10532985B2, “Heterocycle and carbocycle derivatives having TRKA inhibitory activity” (Shionogi & Co., Ltd., priority 2014, dated 2020)
